Reference: patent US20240109877A1, “PYRIMIDINES FOR DEGRADING BRUTON'S TYROSINE KINASE” (AbbVie Inc., priority 2022, published 2024)

Target: Human BTK enzyme, wild-type (Homo sapiens (Human), UniProt Q06187)
Assay: BTK Screening: Btk kinase activity, electrophoretic mobility shift assay (MSA)
Format: biochemical
Details: 0.5 nM BTK enzyme, 50 μM ATP, 15 minutes pre-incubation, 3 hours at 25° C.
Protocol: Btk kinase activity was measured in vitro using an electrophoretic mobility shift assay (MSA). The ability of Btk to phosphorylate a fluorescent peptide substrate (FAM-GEEPLYWSFPAKKK-NH2) was measured. The kinase reactions were assembled in a total volume of 25 μL per well in 384 well plates. The following was added to each well: compound buffer (or control); enzyme buffer; and substrate buffer, as further described below.
Specifically the following was added: (1) compound buffer or control: 5μL of 5× compound buffer [(5× compound buffer comprised of: 1× Master Buffer, X μM test compound in 5% dimethyl sulfoxide; (2× Master Buffer comprised of 200 mM HEPES, pH7.5, 0.2% BSA, and 0.02% Triton X-100)]; and (2) enzyme buffer: 10 μL of 2.5× enzyme buffer (1× Master Buffer, 12.5 mM MgCl2, 2.5 mM DTT, 25 μM sodium orthovanadate, 25 μM beta-glycerophosphate, and 1.25 nM BTK enzyme). Human BTK enzyme Nanosyn-293HEK, wild-type, available from Nanosyn, Santa Clara, CA). Enzyme and compound were pre-incubated for 15 minutes. Additionally, the following was added: (3) substrate buffer: 10 μL of 2.5× substrate buffer (1× Master Buffer, […], and 2.5 μM of the peptide substrate FAM). Each plate was incubated at 25° C. for 3 hours. The reaction was terminated by adding to each well: 45 μL of 1.55× stop buffer (1× Master Buffer and 31 mM EDTA). The final reaction mixture was as follows: 100 mM HEPES, pH7.5; 0.1% BSA; 0.01% Triton X-100; 1 mM DTT; 5 mM MgCl2; 10 μM sodium orthovanadate; 10 μM beta-glycerophosphate; 50 μM ATP; 1% dimethyl sulfoxide (from compound); 1μM fluorescent peptide substrate and 0.5 nM BTK- enzyme. The terminated reactions were analyzed using a 12 channel LABCHIP® 3000 microfluidic detection instrument (available from Caliper Life Sciences, Waltham, MA). […] As substrate and product peptides were separated, two peaks of fluorescence were observed. Change in the relative fluorescence intensity of the substrate and product peaks was the parameter measured, reflecting enzyme activity. In the presence of an active compound, the ratio between product and substrate was altered. The signal of the product decreased, while the signal of the substrate increased. Capillary electrophoregrams (RDA acquisition files) were analyzed using HTS Well Analyzer software (available from Caliper Life Sciences, Waltham, MA).
Activity in each sample was determined as the product to sum ratio (PSR): P/(S+P), where P was the peak height of the product peptide and S was the peak height of the substrate peptide. For each compound, enzyme activity was measured at various concentrations (12 concentrations of compound spaced by 3× dilution intervals). Negative control samples (0% inhibition in the absence of an active compound) and positive control samples (100% inhibition, in the presence of 20 mM EDTA) were assembled in replicates of four and were used to calculate % inhibition values for each active compound at each concentration. Percent inhibition (Pinh) was determined using following equation: Pinh=(PSR0%−PSRinh)/(PSR0%−PSR100%)*100, where PSRinh was the product sum ratio in the presence of inhibitor, PSR0% was the average product sum ratio in the absence of active compound and PSR100% was the average product sum ratio in 100%-inhibition control samples.
The IC50 values of active compounds were determined by 4 parameter sigmoidal dose response model fitting of the inhibition curves (Pinh versus inhibitor concentration) using XLfit® 4 software (IDBS, Boston, MA). The IC50 values are reported in Table 2 in the BTK IC50 (nM) column.

Sequence of Human BTK enzyme, wild-type (Q06187 whole entry): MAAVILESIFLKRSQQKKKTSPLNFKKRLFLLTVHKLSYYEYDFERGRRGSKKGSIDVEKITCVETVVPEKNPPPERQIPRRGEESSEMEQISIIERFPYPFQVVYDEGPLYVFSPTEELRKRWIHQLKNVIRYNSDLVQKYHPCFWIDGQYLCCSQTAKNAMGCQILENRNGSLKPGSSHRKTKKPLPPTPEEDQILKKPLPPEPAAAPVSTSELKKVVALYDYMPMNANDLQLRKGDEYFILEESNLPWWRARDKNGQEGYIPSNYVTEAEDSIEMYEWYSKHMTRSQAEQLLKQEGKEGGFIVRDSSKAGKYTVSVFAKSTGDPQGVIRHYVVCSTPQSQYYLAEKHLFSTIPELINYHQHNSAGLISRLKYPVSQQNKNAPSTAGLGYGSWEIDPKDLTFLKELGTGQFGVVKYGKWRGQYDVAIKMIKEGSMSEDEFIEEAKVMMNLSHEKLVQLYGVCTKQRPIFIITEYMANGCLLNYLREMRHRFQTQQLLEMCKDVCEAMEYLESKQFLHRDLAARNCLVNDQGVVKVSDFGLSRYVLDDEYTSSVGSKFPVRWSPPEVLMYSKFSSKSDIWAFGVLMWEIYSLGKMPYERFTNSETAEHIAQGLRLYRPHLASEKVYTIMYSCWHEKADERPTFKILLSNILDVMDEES

IC50 [nM]	SMILES
0.0977	Cc1cc(-c2cc(Nc3ccc(N4CCN(CCc5ccc(N6CCC(=O)NC6=O)cc5)C[C@@H]4C)cn3)ncn2)ccc1[C@@H](C)NC(=O)c1nc(C(C)(C)C)no1 [Example 1, 3-tert-butyl-N-[(1R)-1-{4-[6-({5-[(2S)-4-{2-[4-(2,4-dioxo-1,3-diazinan-1-yl)phenyl]ethyl}-2-methylpiperazin-1-yl]pyridin-2-yl}amino)pyrimidin-4-yl]-2-methylphenyl}ethyl]-1,2,4-oxadiazole-5-carboxamide]
0.128	Cc1cc(-c2cc(Nc3ccc(N4CCN(CCc5ccc(N6CCC(=O)NC6=O)cc5)C[C@H]4C)cn3)ncn2)ccc1[C@@H](C)NC(=O)c1nc(C(C)(C)C)no1 [Example 2, 3-tert-butyl-N-[(1R)-1-{4-[6-({5-[(2R)-4-{2-[4-(2,4-dioxo-1,3-diazinan-1-yl)phenyl]ethyl}-2-methylpiperazin-1-yl]pyridin-2-yl}amino)pyrimidin-4-yl]-2-methylphenyl}ethyl]-1,2,4-oxadiazole-5-carboxamide]
0.0339	Cc1cc(-c2cc(Nc3ccc(N4CCN(CCc5ccc(N6CCC(=O)NC6=O)cc5)CC4)cn3)ncn2)ccc1[C@@H](C)NC(=O)c1nc(C(C)(C)C)no1 [Example 3, 3-tert-butyl-N-{(1R)-1-[4-(6-{[5-(4-{2-[4-(2,4-dioxo-1,3-diazinan-1-yl)phenyl]ethyl}piperazin-1-yl)pyridin-2-yl]amino}pyrimidin-4-yl)-2-methylphenyl]ethyl}-1,2,4-oxadiazole-5-carboxamide]
0.141	Cc1cc(-c2cc(Nc3ccc(N4CCN(CCc5ccc(N6CCC(=O)NC6=O)c(F)c5)C[C@@H]4C)cn3)ncn2)ccc1[C@@H](C)NC(=O)c1nc(C(C)(C)C)no1 [Example 4, 3-tert-butyl-N-[(1R)-1-{4-[6-({5-[(2S)-4-{2-[4-(2,4-dioxo-1,3-diazinan-1-yl)-3-fluorophenyl]ethyl}-2-methylpiperazin-1-yl]pyridin-2-yl}amino)pyrimidin-4-yl]-2-methylphenyl}ethyl]-1,2,4-oxadiazole-5-carboxamide]
0.113	Cc1cc(-c2cc(Nc3ccc(N4CCN(CCc5ccc(N6CCC(=O)NC6=O)c(F)c5)C[C@H]4C)cn3)ncn2)ccc1[C@@H](C)NC(=O)c1nc(C(C)(C)C)no1 [Example 5, 3-tert-butyl-N-[(1R)-1-{4-[6-({5-[(2R)-4-{2-[4-(2,4-dioxo-1,3-diazinan-1-yl)-3-fluorophenyl]ethyl}-2-methylpiperazin-1-yl]pyridin-2-yl}amino)pyrimidin-4-yl]-2-methylphenyl}ethyl]-1,2,4-oxadiazole-5-carboxamide]
0.0403	CC[C@H]1CN(CCc2ccc(N3CCC(=O)NC3=O)cc2)CCN1c1ccc(Nc2cc(-c3ccc([C@@H](C)NC(=O)c4nc(C(C)(C)C)no4)c(C)c3)ncn2)nc1 [Example 6, 3-tert-butyl-N-[(1R)-1-{4-[6-({5-[(2S)-4-{2-[4-(2,4-dioxo-1,3-diazinan-1-yl)phenyl]ethyl}-2-ethylpiperazin-1-yl]pyridin-2-yl}amino)pyrimidin-4-yl]-2-methylphenyl}ethyl]-1,2,4-oxadiazole-5-carboxamide]
0.0979	CC[C@H]1CN(CCc2ccc(N3CCC(=O)NC3=O)c(F)c2)CCN1c1ccc(Nc2cc(-c3ccc([C@@H](C)NC(=O)c4nc(C(C)(C)C)no4)c(C)c3)ncn2)nc1 [Example 7, 3-tert-butyl-N-[(1R)-1-{4-[6-({5-[(2S)-4-{2-[4-(2,4-dioxo-1,3-diazinan-1-yl)-3-fluorophenyl]ethyl}-2-ethylpiperazin-1-yl]pyridin-2-yl}amino)pyrimidin-4-yl]-2-methylphenyl}ethyl]-1,2,4-oxadiazole-5-carboxamide]
0.0804	CC[C@@H]1CN(CCc2ccc(N3CCC(=O)NC3=O)cc2)CCN1c1ccc(Nc2cc(-c3ccc([C@@H](C)NC(=O)c4nc(C(C)(C)C)no4)c(C)c3)ncn2)nc1 [Example 8, 3-tert-butyl-N-[(1R)-1-{4-[6-({5-[(2R)-4-{2-[4-(2,4-dioxo-1,3-diazinan-1-yl)phenyl]ethyl}-2-ethylpiperazin-1-yl]pyridin-2-yl}amino)pyrimidin-4-yl]-2-methylphenyl}ethyl]-1,2,4-oxadiazole-5-carboxamide]
0.0988	Cc1cc(-c2cc(Nc3ccc(N4CCN(CCc5ccc(N6CCC(=O)NC6=O)cc5)CC4(C)C)cn3)ncn2)ccc1[C@@H](C)NC(=O)c1nc(C(C)(C)C)no1 [Example 9, 3-tert-butyl-N-{(1R)-1-[4-(6-{[5-(4-{2-[4-(2,4-dioxo-1,3-diazinan-1-yl)phenyl]ethyl}-2,2-dimethylpiperazin-1-yl)pyridin-2-yl]amino}pyrimidin-4-yl)-2-methylphenyl]ethyl}-1,2,4-oxadiazole-5-carboxamide]
0.0363	Cc1cc(-c2cc(Nc3ccc(N4CCN(CCc5ccc(N6CCC(=O)NC6=O)cc5)CC4)cn3)ncn2)c(F)cc1[C@@H](C)NC(=O)c1nc(C(C)(C)C)no1 [Example 12, 3-tert-butyl-N-{(1R)-1-[4-(6-{[5-(4-{2-[4-(2,4-dioxo-1,3-diazinan-1-yl)phenyl]ethyl}piperazin-1-yl)pyridin-2-yl]amino}pyrimidin-4-yl)-5-fluoro-2-methylphenyl]ethyl}-1,2,4-oxadiazole-5-carboxamide]
0.14	Cc1cc(-c2cc(Nc3ccc(N4CCN(CCc5ccc(N6CCC(=O)NC6=O)cc5)C[C@@H]4C(C)C)cn3)ncn2)ccc1[C@@H](C)NC(=O)c1nc(C(C)(C)C)no1 [Example 13, 3-tert-butyl-N-[(1R)-1-{4-[6-({5-[(2S)-4-{2-[4-(2,4-dioxo-1,3-diazinan-1-yl)phenyl]ethyl}-2-(propan-2-yl)piperazin-1-yl]pyridin-2-yl}amino)pyrimidin-4-yl]-2-methylphenyl}ethyl]-1,2,4-oxadiazole-5-carboxamide]
0.053	C[C@@H](NC(=O)c1nc(C(C)(C)C)no1)c1ccc(-c2cc(Nc3ccc(N4CCN(CCc5ccc(N6CCC(=O)NC6=O)cc5)C[C@@H]4C)cn3)ncn2)cc1Cl [Example 14, 3-tert-butyl-N-[(1R)-1-{2-chloro-4-[6-({5-[(2S)-4-{2-[4-(2,4-dioxo-1,3-diazinan-1-yl)phenyl]ethyl}-2-methylpiperazin-1-yl]pyridin-2-yl}amino)pyrimidin-4-yl]phenyl}ethyl]-1,2,4-oxadiazole-5-carboxamide]
0.496	Cc1cc(-c2cc(Nc3ccc(N4CCN(CCc5ccc(N6CCC(=O)NC6=O)cc5)C[C@@H]4C)cc3)ncn2)ccc1[C@@H](C)NC(=O)c1nc(C(C)(C)C)no1 [Example 18]
0.1	Cc1cc(-c2cc(Nc3ccc(CCN4CCN(c5ccc(N6CCC(=O)NC6=O)cc5)CC4)cn3)ncn2)ccc1[C@@H](C)NC(=O)c1nc(C(C)(C)C)no1 [Example 19]
